# Test results: publication PMC7692329, “Inhibitory Effect of AB-PINACA, Indazole Carboxamide Synthetic Cannabinoid, on Human Major Drug-Metabolizing Enzymes and Transporters” (Pharmaceutics, 2020)
# Like-named read-outs stand apart in the source and are kept apart here.
# Legend:
# OCT1 = target: T1, OCT1 (Homo sapiens, UniProt O15245); assay: OCT1-mediated methyl-4-phenylpyridinium uptake in HEK293-OCT1 cells; format: in vitro ADME
# T1 construct: host or cells: HEK293
# T1 sequence (O15245 1-554): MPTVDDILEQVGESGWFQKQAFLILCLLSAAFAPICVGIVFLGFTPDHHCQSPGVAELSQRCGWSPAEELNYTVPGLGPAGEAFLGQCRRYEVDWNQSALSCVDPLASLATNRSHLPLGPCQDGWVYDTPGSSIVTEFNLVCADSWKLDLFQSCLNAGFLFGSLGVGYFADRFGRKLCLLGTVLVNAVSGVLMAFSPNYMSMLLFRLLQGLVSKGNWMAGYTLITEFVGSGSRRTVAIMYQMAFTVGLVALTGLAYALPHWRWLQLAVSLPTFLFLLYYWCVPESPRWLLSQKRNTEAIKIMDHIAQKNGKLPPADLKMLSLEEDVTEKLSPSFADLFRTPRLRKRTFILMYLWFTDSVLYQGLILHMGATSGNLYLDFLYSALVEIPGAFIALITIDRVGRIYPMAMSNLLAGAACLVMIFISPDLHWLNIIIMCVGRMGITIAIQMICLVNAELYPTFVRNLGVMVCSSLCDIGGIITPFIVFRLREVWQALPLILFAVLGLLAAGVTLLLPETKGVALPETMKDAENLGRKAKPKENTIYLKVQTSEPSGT
# OAT1 = target: T2, OAT1 (Homo sapiens, UniProt Q4U2R8); assay: OAT1-mediated para-aminohippuric acid uptake in HEK293-OAT1 cells; format: in vitro ADME
# T2 construct: host or cells: HEK293
# OATP1B1 = target: T3, OATP1B1 (Homo sapiens, UniProt Q9Y6L6); assay: OATP1B1-mediated estrone-3-sulfate uptake in HEK293-OATP1B1 cells; format: in vitro ADME
# T3 construct: host or cells: HEK293
# P-gp = target: T4, P-gp (Homo sapiens, UniProt P08183); assay: P-gp-mediated B to A transport of digoxin in LLC-PK1-MDR1 cells; format: in vitro ADME
# T4 construct: host or cells: LLC-PK1
# [1] = tested on: human cannabinoid receptor type 1 (hCB1); details: cited from earlier work
# [2] = tested on: human cannabinoid receptor type 2 (hCB2); details: cited from earlier work
# [3] = parameters: method as in PMID 26105953; details: cited from earlier work
# [4] = 25 of 58 cases; dose regimen not specified; cited from earlier work
# [5] = child, chewing an AB-PINACA contaminated cigarette; cited from earlier work
# UGT1A1 = UGT1A1 (Homo sapiens, UniProt P22309); assay: UGT1A1 SN-38 glucuronidation inhibition in ultrapooled human liver microsomes
# Chain of UGT1A1 (P22309 26-533): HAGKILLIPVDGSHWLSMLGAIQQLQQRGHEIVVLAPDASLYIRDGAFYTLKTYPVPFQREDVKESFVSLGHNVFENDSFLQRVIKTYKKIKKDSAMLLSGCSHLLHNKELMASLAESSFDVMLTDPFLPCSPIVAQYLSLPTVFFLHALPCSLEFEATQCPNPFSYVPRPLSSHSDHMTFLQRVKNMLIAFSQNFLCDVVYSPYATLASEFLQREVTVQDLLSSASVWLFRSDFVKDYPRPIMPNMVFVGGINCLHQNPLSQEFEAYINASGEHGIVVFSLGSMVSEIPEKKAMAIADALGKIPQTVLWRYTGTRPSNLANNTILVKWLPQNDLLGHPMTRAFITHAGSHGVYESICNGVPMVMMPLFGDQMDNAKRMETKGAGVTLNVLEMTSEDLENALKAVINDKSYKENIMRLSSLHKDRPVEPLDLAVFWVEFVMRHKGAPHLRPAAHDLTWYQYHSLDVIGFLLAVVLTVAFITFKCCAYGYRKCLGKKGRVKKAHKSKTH
# CYP2A6 = CYP2A6 (Homo sapiens, UniProt P11509); assay: CYP2A6 coumarin 7-hydroxylase inhibition in ultrapooled human liver microsomes
# Chain of CYP2A6 (P11509 whole entry): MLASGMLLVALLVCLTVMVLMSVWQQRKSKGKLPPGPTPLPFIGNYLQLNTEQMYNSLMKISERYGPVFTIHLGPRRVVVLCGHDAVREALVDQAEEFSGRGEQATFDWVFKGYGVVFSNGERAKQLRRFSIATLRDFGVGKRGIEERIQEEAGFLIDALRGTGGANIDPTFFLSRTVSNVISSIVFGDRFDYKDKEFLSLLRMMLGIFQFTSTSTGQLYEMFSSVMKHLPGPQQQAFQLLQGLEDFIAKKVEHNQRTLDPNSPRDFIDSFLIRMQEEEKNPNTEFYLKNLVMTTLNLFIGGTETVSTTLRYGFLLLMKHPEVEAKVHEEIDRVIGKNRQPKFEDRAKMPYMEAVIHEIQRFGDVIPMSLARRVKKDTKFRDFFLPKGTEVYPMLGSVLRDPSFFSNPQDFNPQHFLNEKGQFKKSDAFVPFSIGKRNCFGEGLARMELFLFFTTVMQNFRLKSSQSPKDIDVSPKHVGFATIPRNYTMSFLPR
# CYP1A2 = CYP1A2 (Homo sapiens, UniProt P05177); assay: CYP1A2 phenacetin O-deethylase inhibition in ultrapooled human liver microsomes
# Chain of CYP1A2 (P05177 whole entry): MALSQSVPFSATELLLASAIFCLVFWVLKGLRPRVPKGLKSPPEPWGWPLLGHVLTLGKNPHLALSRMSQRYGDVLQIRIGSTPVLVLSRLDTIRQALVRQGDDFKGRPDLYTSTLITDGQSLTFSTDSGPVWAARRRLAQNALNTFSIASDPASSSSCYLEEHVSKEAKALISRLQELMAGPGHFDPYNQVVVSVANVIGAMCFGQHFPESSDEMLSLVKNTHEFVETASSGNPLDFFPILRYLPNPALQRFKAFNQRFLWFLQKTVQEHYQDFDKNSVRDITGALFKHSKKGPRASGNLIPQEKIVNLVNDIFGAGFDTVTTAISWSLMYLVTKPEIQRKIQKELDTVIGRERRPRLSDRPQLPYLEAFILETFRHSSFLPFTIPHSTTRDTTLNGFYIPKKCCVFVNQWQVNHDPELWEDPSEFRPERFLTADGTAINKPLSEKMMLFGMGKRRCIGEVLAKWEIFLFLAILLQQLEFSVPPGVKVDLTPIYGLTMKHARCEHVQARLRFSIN
# CYP2C8 = target: T5, CYP2C8 (Homo sapiens, UniProt P10632); assay: CYP2C8 amodiaquine N-deethylase inhibition in ultrapooled human liver microsomes; details: for IC50: CYP2C8 amodiaquine N-deethylase, ultrapooled human liver microsomes
# T5 sequence (P10632 1-490): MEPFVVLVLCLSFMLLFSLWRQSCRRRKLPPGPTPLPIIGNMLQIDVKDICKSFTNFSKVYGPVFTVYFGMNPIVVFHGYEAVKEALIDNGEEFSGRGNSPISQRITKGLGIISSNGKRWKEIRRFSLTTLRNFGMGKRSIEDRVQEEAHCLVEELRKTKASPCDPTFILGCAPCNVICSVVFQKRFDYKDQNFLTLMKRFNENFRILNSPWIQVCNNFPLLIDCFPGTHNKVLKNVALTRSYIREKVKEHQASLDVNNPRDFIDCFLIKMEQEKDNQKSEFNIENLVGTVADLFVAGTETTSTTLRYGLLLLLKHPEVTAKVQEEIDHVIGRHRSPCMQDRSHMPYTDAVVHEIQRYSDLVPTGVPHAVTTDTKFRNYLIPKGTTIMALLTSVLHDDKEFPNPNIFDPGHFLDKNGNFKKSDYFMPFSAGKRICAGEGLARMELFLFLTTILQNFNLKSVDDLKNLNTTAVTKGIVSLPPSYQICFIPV
# CYP2D6 = CYP2D6 (Homo sapiens, UniProt P10635); assay: CYP2D6 bufuralol 1'-hydroxylase inhibition in ultrapooled human liver microsomes
# Chain of CYP2D6 (P10635 whole entry): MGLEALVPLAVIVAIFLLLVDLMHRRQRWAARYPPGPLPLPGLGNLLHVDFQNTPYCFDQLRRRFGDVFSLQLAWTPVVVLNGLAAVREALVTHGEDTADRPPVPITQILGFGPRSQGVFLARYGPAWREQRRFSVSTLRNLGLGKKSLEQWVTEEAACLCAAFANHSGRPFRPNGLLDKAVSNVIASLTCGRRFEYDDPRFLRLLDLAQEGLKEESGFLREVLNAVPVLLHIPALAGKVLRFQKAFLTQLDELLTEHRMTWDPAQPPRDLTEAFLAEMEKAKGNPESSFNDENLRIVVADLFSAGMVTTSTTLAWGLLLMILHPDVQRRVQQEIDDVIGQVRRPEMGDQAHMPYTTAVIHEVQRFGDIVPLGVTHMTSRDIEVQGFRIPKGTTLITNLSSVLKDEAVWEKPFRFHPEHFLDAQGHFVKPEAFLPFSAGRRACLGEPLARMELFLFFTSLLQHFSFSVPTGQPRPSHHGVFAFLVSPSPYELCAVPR
# CYP2C9 = CYP2C9 (Homo sapiens, UniProt P11712); assay: CYP2C9 diclofenac 4'-hydroxylase inhibition in ultrapooled human liver microsomes; details: for IC50: CYP2C9 diclofenac 4'-hydroxylase, ultrapooled human liver microsomes
# Chain of CYP2C9 (P11712 whole entry): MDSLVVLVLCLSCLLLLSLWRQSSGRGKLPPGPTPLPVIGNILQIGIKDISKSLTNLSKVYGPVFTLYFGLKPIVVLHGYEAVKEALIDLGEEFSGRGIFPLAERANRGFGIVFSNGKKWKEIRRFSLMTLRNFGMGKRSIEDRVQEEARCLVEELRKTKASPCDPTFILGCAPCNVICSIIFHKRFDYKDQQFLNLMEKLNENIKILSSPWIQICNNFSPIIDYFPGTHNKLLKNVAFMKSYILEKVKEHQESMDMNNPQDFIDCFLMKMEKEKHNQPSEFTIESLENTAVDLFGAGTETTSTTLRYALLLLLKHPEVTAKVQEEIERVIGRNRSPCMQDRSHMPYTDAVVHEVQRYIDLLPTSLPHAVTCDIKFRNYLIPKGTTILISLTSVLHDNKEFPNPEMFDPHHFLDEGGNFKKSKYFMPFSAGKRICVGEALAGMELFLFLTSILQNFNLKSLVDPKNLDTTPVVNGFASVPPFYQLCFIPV
# UGT2B7 = UGT2B7 (Homo sapiens, UniProt P16662); assay: UGT2B7 naloxone 3-β-D-glucuronidation inhibition in ultrapooled human liver microsomes
# CYP2C19 = CYP2C19 (Homo sapiens, UniProt P33261); assay: CYP2C19 [S]-mephenytoin 4'-hydroxylase inhibition in ultrapooled human liver microsomes; details: for IC50: CYP2C19 [S]-mephenytoin 4'-hydroxylase, ultrapooled human liver microsomes
# Chain of CYP2C19 (P33261 whole entry): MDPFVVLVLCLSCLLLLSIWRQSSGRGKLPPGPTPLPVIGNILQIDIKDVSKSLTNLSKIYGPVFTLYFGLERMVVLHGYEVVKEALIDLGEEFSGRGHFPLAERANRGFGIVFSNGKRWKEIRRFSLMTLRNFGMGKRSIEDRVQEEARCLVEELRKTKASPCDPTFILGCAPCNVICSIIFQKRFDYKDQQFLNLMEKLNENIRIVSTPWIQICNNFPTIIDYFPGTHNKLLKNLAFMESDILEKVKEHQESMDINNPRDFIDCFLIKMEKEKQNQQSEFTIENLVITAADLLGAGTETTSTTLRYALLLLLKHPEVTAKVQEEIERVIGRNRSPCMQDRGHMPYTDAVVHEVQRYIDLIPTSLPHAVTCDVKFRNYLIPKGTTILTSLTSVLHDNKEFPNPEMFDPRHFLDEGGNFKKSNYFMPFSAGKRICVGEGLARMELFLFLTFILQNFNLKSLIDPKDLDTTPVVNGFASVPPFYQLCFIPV
# UGT1A4 = UGT1A4 (Homo sapiens, UniProt P22310); assay: UGT1A4 trifluoperazine N-glucuronidation inhibition in ultrapooled human liver microsomes
# Chain of UGT1A4 (P22310 29-534): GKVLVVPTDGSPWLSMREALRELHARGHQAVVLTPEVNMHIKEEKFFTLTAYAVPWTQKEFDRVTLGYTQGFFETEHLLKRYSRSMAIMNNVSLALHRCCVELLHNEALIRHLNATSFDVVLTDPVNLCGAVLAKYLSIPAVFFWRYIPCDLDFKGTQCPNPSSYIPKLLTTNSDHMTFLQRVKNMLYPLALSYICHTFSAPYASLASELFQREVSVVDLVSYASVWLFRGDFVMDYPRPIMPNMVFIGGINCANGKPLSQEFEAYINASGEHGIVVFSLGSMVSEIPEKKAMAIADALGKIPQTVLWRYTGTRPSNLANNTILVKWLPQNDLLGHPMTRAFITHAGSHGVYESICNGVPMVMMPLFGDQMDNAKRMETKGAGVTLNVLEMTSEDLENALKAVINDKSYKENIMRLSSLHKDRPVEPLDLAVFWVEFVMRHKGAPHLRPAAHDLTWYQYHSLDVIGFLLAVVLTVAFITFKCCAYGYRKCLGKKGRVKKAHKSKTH
# UGT1A6 = UGT1A6 (Homo sapiens, UniProt P19224); assay: UGT1A6 N-acetylserotonin glucuronidation inhibition in ultrapooled human liver microsomes
# Chain of UGT1A6 (P19224 27-532): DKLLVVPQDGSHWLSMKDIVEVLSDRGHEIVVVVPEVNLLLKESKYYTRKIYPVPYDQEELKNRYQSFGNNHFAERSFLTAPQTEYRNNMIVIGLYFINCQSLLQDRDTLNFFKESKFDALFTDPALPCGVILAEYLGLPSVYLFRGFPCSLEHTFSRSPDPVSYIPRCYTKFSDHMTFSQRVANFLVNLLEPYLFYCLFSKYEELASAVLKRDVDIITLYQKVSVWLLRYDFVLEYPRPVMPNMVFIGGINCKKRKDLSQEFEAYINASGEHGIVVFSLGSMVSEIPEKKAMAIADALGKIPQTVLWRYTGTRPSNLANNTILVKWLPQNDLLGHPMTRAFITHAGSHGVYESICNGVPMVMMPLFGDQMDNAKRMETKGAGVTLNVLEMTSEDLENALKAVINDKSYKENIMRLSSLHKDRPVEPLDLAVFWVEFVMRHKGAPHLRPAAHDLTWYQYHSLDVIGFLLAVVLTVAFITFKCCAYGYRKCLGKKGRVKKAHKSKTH
# UGT1A9 = UGT1A9 (Homo sapiens, UniProt O60656); assay: UGT1A9 mycophenolic acid glucuronidation inhibition in ultrapooled human liver microsomes
# Chain of UGT1A9 (O60656 26-530): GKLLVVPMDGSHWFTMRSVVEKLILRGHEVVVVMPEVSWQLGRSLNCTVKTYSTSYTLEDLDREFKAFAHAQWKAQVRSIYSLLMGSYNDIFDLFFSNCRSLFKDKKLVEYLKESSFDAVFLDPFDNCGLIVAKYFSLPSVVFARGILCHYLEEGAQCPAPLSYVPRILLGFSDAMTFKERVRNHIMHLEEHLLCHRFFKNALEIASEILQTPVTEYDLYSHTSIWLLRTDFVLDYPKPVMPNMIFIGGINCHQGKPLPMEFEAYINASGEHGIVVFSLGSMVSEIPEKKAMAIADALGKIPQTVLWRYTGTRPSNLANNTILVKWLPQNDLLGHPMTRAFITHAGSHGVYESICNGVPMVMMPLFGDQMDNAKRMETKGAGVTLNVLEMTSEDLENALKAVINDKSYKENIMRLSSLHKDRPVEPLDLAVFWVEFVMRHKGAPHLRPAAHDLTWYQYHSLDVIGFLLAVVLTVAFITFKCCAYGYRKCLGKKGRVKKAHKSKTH
# [6] = IC50 With NADPH Preincubation, 30-min preincubation with NADPH
# [7] = IC50 Without NADPH Preincubation, without NADPH preincubation
compound,measurement,setting,value
"CCCCCn1nc(C(=O)N[C@H](C(N)=O)C(C)C)c2ccccc21 [AB-PINACA, N-[(2S)-1-amino-3-methyl-1-oxobutan-2-yl]-1-pentyl-1H-indazole-3-carboxamide]",IC50,OCT1,136 µM
same,Ki,OCT1,146 µM
same,"Mode of Inhibition, OCT1","OCT1; methyl-4-phenylpyridinium uptake, HEK293-OCT1 cells",mixed mode of inhibition
same,IC50,OAT1,> 250 µM
same,IC50,OATP1B1,> 250 µM
same,IC50,P-gp,> 100 µM
same,fold higher in vitro binding affinity to hCB1 compared with Δ9-THC,[1],23.3 fold
same,Ki,[1]; read-out: receptor binding affinity to hCB1 (Ki),2.87 nM
same,fold higher in vitro binding affinity to hCB2 compared with Δ9-THC,[2],40.9 fold
same,Ki,[2]; read-out: receptor binding affinity to hCB2 (Ki),0.88 nM
same,substitution for Δ9-THC,[3],substituted fully and dose dependently
same,blood (plasma) concentration in suspected impaired driving cases,[4],1.8 to 127 nM
same,serum level,[5],42 ng/mL
same,IC50,UGT1A1,> 100 µM
same,IC50,CYP2A6,> 100 µM
same,IC50,"CYP2A6; read-out: IC50 Without NADPH Preincubation, CYP2A6 coumarin 7-hydroxylase, ultrapooled human liver microsomes, without NADPH preincubation",> 100 µM
same,IC50,CYP1A2,> 100 µM
same,IC50,"CYP1A2; read-out: IC50 With NADPH Preincubation, CYP1A2 phenacetin O-deethylase, ultrapooled human liver microsomes, 30-min preincubation with NADPH",> 100 µM
same,Ki,CYP2C8,16.9 µM
same,IC50,CYP2C8; [6],30.1 µM
same,IC50,CYP2C8; [7],32.5 µM
same,"Mode of Inhibition, CYP2C8","CYP2C8; amodiaquine N-deethylation, human liver microsomes",mixed mode of inhibition
same,IC50 shift at 15 min,"CYP2C8; human, liver microsomes, pH 7.4, probe amodiaquine",1.1
same,IC50,CYP2D6,> 100 µM
same,IC50,"CYP2D6; read-out: IC50 With NADPH Preincubation, CYP2D6 bufuralol 1'-hydroxylase, ultrapooled human liver microsomes, 30-min preincubation with NADPH",> 100 µM
same,IC50,CYP2C9; [6],19.3 µM
same,IC50,CYP2C9; [7],17.4 µM
same,Ki,"CYP2C9; Ki, CYP2C9, diclofenac 4'-hydroxylation, human liver microsomes, Lineweaver–Burk and Dixon plots",16.1 µM
same,IC50 shift at 15 min,"CYP2C9; human, liver microsomes, pH 7.4, probe diclofenac",0.9
same,IC50,UGT2B7,> 100 µM
same,IC50,CYP2C19; [6],23 µM
same,IC50,CYP2C19; [7],20 µM
same,Ki,"CYP2C19; Ki, CYP2C19, [S]-mephenytoin 4'-hydroxylation, human liver microsomes, Lineweaver–Burk and Dixon plots",6.7 µM
same,IC50 shift at 15 min,"CYP2C19; human, liver microsomes, pH 7.4, probe [S]-mephenytoin",0.9
same,IC50,UGT1A4,> 100 µM
same,IC50,UGT1A6,94 µM
same,IC50,UGT1A9,65.2 µM
